The IC50 is the concentration at which inhibition is half-maximal. A higher IC50 goes with lower potency. For orientation: Km means the concentration of substrate that gives half-maximal velocity.

Seven molecules from ChEMBL document CHEMBL2074151, “Molecular identification of a rat novel organic anion transporter moat1, which transports prostaglandin D(2), leukotriene C(4), and taurocholate” (Biochem Biophys Res Commun, 2000) can be followed below.

Series [1] deals with T1, Solute carrier organic anion transporter family member 2B1 (Rattus norvegicus, UniProt Q9JHI3).
T1 sequence (Q9JHI3 whole entry): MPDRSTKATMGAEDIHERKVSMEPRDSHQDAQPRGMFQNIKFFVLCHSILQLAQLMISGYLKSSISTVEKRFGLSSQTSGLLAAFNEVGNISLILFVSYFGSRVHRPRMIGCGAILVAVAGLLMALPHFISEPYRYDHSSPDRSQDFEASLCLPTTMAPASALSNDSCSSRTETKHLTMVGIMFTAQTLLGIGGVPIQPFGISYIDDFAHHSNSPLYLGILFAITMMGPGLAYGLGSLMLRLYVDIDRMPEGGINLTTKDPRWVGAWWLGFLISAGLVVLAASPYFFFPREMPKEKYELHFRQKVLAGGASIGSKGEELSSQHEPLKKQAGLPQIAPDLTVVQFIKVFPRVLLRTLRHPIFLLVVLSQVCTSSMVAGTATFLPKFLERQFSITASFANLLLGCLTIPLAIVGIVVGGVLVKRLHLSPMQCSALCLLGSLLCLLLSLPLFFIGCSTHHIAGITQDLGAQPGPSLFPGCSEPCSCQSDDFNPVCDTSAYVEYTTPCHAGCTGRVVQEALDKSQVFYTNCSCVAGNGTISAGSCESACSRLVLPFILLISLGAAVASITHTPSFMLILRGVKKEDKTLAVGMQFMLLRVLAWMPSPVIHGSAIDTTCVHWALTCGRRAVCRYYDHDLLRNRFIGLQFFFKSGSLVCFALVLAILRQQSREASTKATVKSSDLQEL
As to the kind of experiment: TP_TRANSPORTER: inhibition of PGD2 uptake in Xenopus laevis oocytes. Type of series: functional, cell-based, Oocyte.

In series [2] the target is T1, Solute carrier organic anion transporter family member 2B1. The series is described as follows: (§1) TP_TRANSPORTER: uptake in Xenopus laevis oocytes. Type of series: functional, cell-based. The note with it: oocyte.
Substrate in series [3]: CCCCC[C@H](O)/C=C/[C@H]1C(=O)C[C@H](O)[C@@H]1C/C=C\CCCC(=O)O
The description is as §1. Type of series: functional, cell-based, Oocyte.

Substrate in series [4]: CCCCC/C=C\C\C=C/C=C/C=C/[C@@H](SC[C@@H](NC(=O)CC[C@H](N)C(=O)O)C(=O)NCC(=O)O)[C@@H](O)CCCC(=O)O
Described as §1. The class given is functional, cell-based, Oocyte.

`CCCCC[C@H](O)/C=C/[C@H]1[C@H](O)CC(=O)[C@@H]1CCCCCCC(=O)O` [ALPROSTADIL] gave an IC50 in series [1] of 35.8 nM. Besides, the Activity entry in series [2] was “substrate [+]”.

In the case of `CCCCC[C@H](O)/C=C/[C@H]1[C@H](O)CC(=O)[C@@H]1C/C=C\CCCC(=O)O` [DINOPROSTONE], the Activity result in series [2] was “substrate [+]”.

`CCCCC[C@H](O)/C=C/[C@@H]1[C@@H](C/C=C\CCCC(=O)O)[C@@H](O)C[C@H]1O` [DINOPROST] yielded an IC50 in series [1] of 287 nM. For the same molecule, the Activity result in series [2] is “is not a substrate [-]”.

Turning to `CC#CCC(C)[C@H](O)/C=C/[C@@H]1[C@H]2C/C(=C/CCCC(=O)O)C[C@H]2C[C@H]1O` (stereo not given in full) [ILOPROST], the Activity entry in series [2] is “substrate [+]”.

As to `C[C@]12CC[C@H](OS(=O)(=O)O)CC1=CC[C@@H]1[C@@H]2CC[C@]2(C)C(=O)CC[C@@H]12` [PRASTERONE SULFURIC ACID], the Activity result in series [2] is “is not a substrate [-]”.

Consider `CCCCC[C@H](O)/C=C/[C@H]1OC(O)C[C@H](O)[C@@H]1C/C=C\CCCC(=O)O` (stereo not given in full) [THROMBOXANE B2], for which, in series [2], the Activity entry was “substrate [+]”.

B1: Solute carrier organic anion transporter family member 2B1 (Rattus norvegicus) (protein)
chain: MPDRSTKATMGAEDIHERKVSMEPRDSHQDAQPRGMFQNIKFFVLCHSILQLAQLMISGYLKSSISTVEKRFGLSSQTSGLLAAFNEVGNISLILFVSYFGSRVHRPRMIGCGAILVAVAGLLMALPHFISEPYRYDHSSPDRSQDFEASLCLPTTMAPASALSNDSCSSRTETKHLTMVGIMFTAQTLLGIGGVPIQPFGISYIDDFAHHSNSPLYLGILFAITMMGPGLAYGLGSLMLRLYVDIDRMPEGGINLTTKDPRWVGAWWLGFLISAGLVVLAASPYFFFPREMPKEKYELHFRQKVLAGGASIGSKGEELSSQHEPLKKQAGLPQIAPDLTVVQFIKVFPRVLLRTLRHPIFLLVVLSQVCTSSMVAGTATFLPKFLERQFSITASFANLLLGCLTIPLAIVGIVVGGVLVKRLHLSPMQCSALCLLGSLLCLLLSLPLFFIGCSTHHIAGITQDLGAQPGPSLFPGCSEPCSCQSDDFNPVCDTSAYVEYTTPCHAGCTGRVVQEALDKSQVFYTNCSCVAGNGTISAGSCESACSRLVLPFILLISLGAAVASITHTPSFMLILRGVKKEDKTLAVGMQFMLLRVLAWMPSPVIHGSAIDTTCVHWALTCGRRAVCRYYDHDLLRNRFIGLQFFFKSGSLVCFALVLAILRQQSREASTKATVKSSDLQEL
Turning to B1, the Michaelis constant (Km) in series [3] was determined as 0.0355 µM; in series [4] it was 3.2 µM.
